# Data: patent US10420813B2, “Competitive inhibitors of invariant chain expression and/or ectopic clip binding” (Regents of the University of Colorado, a body corporate, priority 2007, dated 2019)
# No end group written: not given here.
# How the values were obtained:
# [1] = system: cell surface CLIP on Daudi cells; experiment: Cell surface CLIP by flow cytometry; assay type: cell-based, human; conditions: 24 and 48 hours
# Description: (§1) Kinetics of CLIP displacement from the surface of model B cells lines (Daudi and Raji) in response to thymic nuclear protein mixture was determined.
# (§2) Results were expressed in histogram analyses (FIG. 3). The Y axis represents cell number of the 5000 live cells versus the X axis which is a reflection of relative Fitc fluorescence. The distance between the histogram from the isotype control staining versus the histogram reflecting the specific stain is a measure of level of cell surface CLIP on a population of live Raji or Daudi cells as indicated. […]
# (§3) Harvested cells were stained using standard staining procedure that called for a 1:100 dilution of Fitc-anti-human CLIP or isotype control. […] Samples were acquired and analyzed on a Coulter Excel Flow Cytometer.
# (§4) The ability of MKN1 (bioCLIP) to alter cell surface CLIP and CD74 levels was determined using Raji or Daudi cells.
# (§5) Data were analyzed by histogram with Y axis represents cell number of the 5000 live cells versus the X axis which is a reflection of relative FITC fluorescence with either antibodies to CLIP or CD74. […]
# (§6) Harvested cells were stained using standard staining procedure that called for a 1:100 dilution of Fitc-anti-human CLIP or CD74 antibody (Fitc, Pharmingen, Cat #554647) or isotype control. […] Samples were acquired and analyzed on a Coulter Excel Flow Cytometer. […]
# [2] = system: cell surface CLIP on Raji cells; experiment: Cell surface CLIP by flow cytometry; assay type: cell-based, human; conditions: 24 and 48 hours
# Description: as §1, §2, §3, §4, §5, §6
# [3] = system: cell surface CD74 on Daudi cells; experiment: Cell surface CD74 by flow cytometry; assay type: cell-based, human; conditions: 24 and 48 hours
# Description: as §4
# (§7) Data were analyzed by histogram with Y axis represents cell number of the 5000 live cells versus the X axis which is a reflection of relative FITC fluorescence with either antibodies to CLIP or CD74. The distance between the histogram from the isotype control staining versus the histogram reflecting the specific stain and is a measure of level of cell surface CLIP or CD74 when staining a population of live Raji or Daudi cells.
# (§8) Cell Culture Conditions: The Raji and Daudi cell lines were purchased from American Type Culture Collection, were thawed, and grown in RPMI 1640 medium supplemented with standard supplements, including 10% fetal calf serum, gentamycin, penicillin, streptomycin, sodium pyruvate, HEPES buffer, 1-glutamine, and 2-ME.
# (§9) Protocol: Cells were plated into a 12 well plate with 3 mls total volume containing approximately 0.5×10^6/mL for Daudi cells and 0.5×10^6/mL for Raji cells. […]
# (§10) Harvested cells were stained using standard staining procedure that called for a 1:100 dilution of Fitc-anti-human CLIP or CD74 antibody (Fitc, Pharmingen, Cat #554647) or isotype control. […] Samples were acquired and analyzed on a Coulter Excel Flow Cytometer.
# [4] = system: cell surface CD74 on Raji cells; experiment: Cell surface CD74 by flow cytometry; assay type: cell-based, human; conditions: 24 and 48 hours
# Description: as §4, §7, §8, §9, §10
# [5] = system: Daudi cells; experiment: Binding of biotinylated peptide to cells (Streptavidin-PE); assay type: cell-based, human; conditions: 50 microMolar
# Description: (§11) The ability of synthetic peptides to compete with binding of CLIP peptides and result in the cell surface expression of CD1d was determined.
# (§12) Results: The results shown in FIG. 5 are expressed in histogram analyses. The Y axis represents cell number of the 5000 live cells versus the X axis which is a reflection of relative Fitc fluorescence versus Streptavidin-PE (eBioscience, Cat. #12-4317) that will bind with high affinity to cell-bound biotinylated peptides. The distance between the histogram from the isotype control staining versus the histogram reflecting the specific stain and is a measure of level of cell surface CD1d.
# as §8
# (§13) Protocol: Cells were plated into a 12 well plate with 3 mls total volume containing approximately 1.5×10^6/well for Daudi cells and 3.0×10^6/well for Raji cells. Treatment groups included no treatment as control and biotinylated […] (SEQ ID NO: 2) (also referred to as MKN 5) at 50 microMolar final concentration based on the reported molarity of the synthesized compounds.
# (§14) The cells were incubated at 37° C. in an atmosphere containing 5% CO2 and approximately 92% humidity. The cells were incubated for 4 and 24 hours. At each time point, the cells from that experimental time were harvested and stained for flow cytometric analysis of cell surface expression of CD1d by staining with PE anti-human CD1d (eBioscience, clone 51.5, cat. #12-00016-71).
# (§15) Harvested cells were stained using standard staining procedure that called for a 1:100 dilution of PE anti-CD1d. Following staining on ice for 25 minutes, cells were washed with PBS/FCS and resuspended in 100 microliters and added to staining tubes containing 400 microliters of PBS. Samples were acquired and analyzed on a Coulter Excel Flow Cytometer.
# [6] = system: Raji cells; experiment: as above; assay type: cell-based, human; conditions: 50 microMolar
# Description: as §11, §12, §8, §13, §14, §15
# [7] = system: cell surface CD1d on Daudi cells; experiment: Cell surface expression of CD1d; assay type: cell-based, human; conditions: 50 microMolar
# Description: as §11, §12, §8, §13, §14, §15
# [8] = system: cell surface CD1d on Raji cells; experiment: Cell surface expression of CD1d; assay type: cell-based, human; conditions: 50 microMolar
# Description: as §11, §12, §8, §13, §14, §15
# [9] = background statement; cited from earlier work
compound,measurement,setting,value
SGG GSK MRM ATP LLM QAL Y [MKN1 (bioCLIP)],cell surface CLIP level,[1],alters
same,cell surface CLIP level,[2],alters
same,cell surface CD74 level,[3],alters
same,cell surface CD74 level,[4],alters
"Biotinylated FRIMAVLAS: biotinylated FRIMAVLAS (SEQ ID NO: 2), also referred to as MKN 5 (also: biotinylated, position not given here)",binding of biotinylated peptide to cells,[5]; 4 hours,bound with high affinity
same,binding of biotinylated peptide to cells,[5]; 24 hours,Less binding
same,binding of biotinylated peptide to cells,[6]; 4 hours,bound with high affinity
same,binding of biotinylated peptide to cells,[6]; 24 hours,Less binding
same,cell surface expression of CD1d,[7]; 4 hours,marginally
same,cell surface expression of CD1d,[7]; 24 hours,slightly more
same,cell surface expression of CD1d,[8]; 4 hours,marginally
same,cell surface expression of CD1d,[8]; 24 hours,slightly more
"C=CC[C@@H]1/C=C(\C)C[C@H](C)C[C@H](OC)[C@H]2O[C@@](O)(C(=O)C(=O)N3CCCC[C@H]3C(=O)O[C@H](/C(C)=C/[C@@H]3CC[C@@H](O)[C@H](OC)C3)[C@H](C)[C@@H](O)CC1=O)[C@H](C)C[C@@H]2OC [FK506, tacrolimus]",immunosuppressive activity relative to cyclosporin,[9],10-100 times greater than cyclosporin
